In ChEMBL document CHEMBL3301361, “Experimental in vitro DMPK and physicochemical data on a set of publicly disclosed compounds”:
Converted amounts (≈) assume the structure as drawn.

Assays:
in vitro [1] = settings: mouse, plasma
in vitro [2] = settings: human, plasma
in vitro [3] = settings: SD, HW or BN, rat, plasma
physchem [4] = settings: octan-1-ol/water
physchem [5] = settings: pH 7.4 buffer

Row | SMILES | fraction unbound at 5 h (in vitro [1]) | fraction unbound at 5 h (in vitro [2]; PPB) | fraction unbound at 5 h (in vitro [3]) | other results
1 | CC(C)[C@@H]1CC[C@@H](C)C[C@@H]1P(=O)(c1ccccc1)c1ccccc1 | 0.0039 | – | – | –
2 | Nc1scc2c(C(=O)NC3CC3)nn(-c3ccc(Cl)cc3)c(=O)c12 | 0.0321 | 0.0179 | – | –
3 | CC(C)NC(=O)c1nn(-c2ccc(Cl)cc2)c(=O)c2c(N)scc12 | 0.0219 | 0.0099 | – | –
4 | O=c1c2cc(-c3ccc(Cl)cc3)oc2ccn1-c1ccc2c(cnn2CCN2CCCC2)c1 | 0.0043 | – | – | –
5 | C/C=C/c1ccc(Oc2nnnn2-c2ccc(C(N)=O)cc2)c(OC)c1 | 0.0428 | – | – | fraction unbound at 5 h (in vitro [2]): 0.0268
6 | Cc1cc(C)c(S(=O)(=O)NCc2ccncc2)c(C)c1 | 0.151 | 0.139 | 0.139 | –
7 | COc1ccc(S(=O)(=O)N2CC(C)N(S(=O)(=O)c3ccc(OC)cc3)CC2C)cc1 (stereo unspecified) | 0.0179 | – | 0.0139 | fraction unbound at 5 h (in vitro [2]): 0.0035
8 | CC(C)(C)OC(=O)NC[C@H]1CC[C@H](CNC(=O)c2cc(N3CCC(CCN4CC(O)C4)CC3)nc3ccccc23)CC1 | 0.0139 | 0.03 | 0.0328 | –
9 | NC(=O)c1ccc(-n2nnnc2Oc2ccc(Br)cc2)cc1 | 0.0854 | – | 0.0872 | –
10 | Cc1[nH]c(C(=O)NC2CCN(c3ncc(C(=O)O)s3)CC2)c(Cl)c1Cl | 0.197 | 0.0293 | – | –
11 | N#Cc1c(-c2ccc(-c3ccccc3OC(F)(F)F)cc2)nc2ccncc2c1O | 0.0013 | – | – | logD (physchem [4]; pH 7.4, LogD7.4): 3.45; solubility thermodynamic (physchem [5]): 3.3 µM (≈ 1.34 µg/mL)
12 | N#CCOc1ccccc1-c1ccc(-c2nc3ccncc3c(O)c2C#N)cc1 | 0.0149 | 0.0011 | – | –
13 | N#Cc1c(-c2ccc(-c3ccccc3Cl)cc2)nc2ccncc2c1O | 0.0022 | 0.0008 | – | –
14 | Cc1cc(-c2ccc(-c3nc4ccncc4c(O)c3C#N)cc2)ccn1 | 0.013 | 0.0041 | – | logD (physchem [4]; pH 7.4, LogD7.4): 1.6
15 | Cc1nn(C)c(C)c1-c1ccc(-c2nc3ccncc3c(O)c2C#N)cc1 | 0.0343 | – | – | –
16 | COCC#Cc1cccc(C2(c3ccc(OC(F)F)cc3)N=C(N)N3CC(F)(F)CN=C32)c1 (stereo unspecified) | 0.013 | 0.0111 | – | –
17 | CC(C)Oc1ccc(-c2nc(-c3cccc4c(CCC(=O)O)c[nH]c34)no2)cc1Cl | 0.0005 | – | – | –
18 | COc1ccc2cc(S(=O)(=O)N[C@H](CC(=O)N[C@H](Cc3ccc(CN4[C@H](C)CCC[C@@H]4C)cc3)C(=O)N(C)C(C)C)c3ccc4c(c3)OCO4)ccc2c1 | 0.04 | 0.04 | 0.0447 | –
19 | Nc1scc2c(C(=O)NC3CC3)nn(-c3ccc(F)cc3)c(=O)c12 | 0.11 | – | – | logD (physchem [4]; pH 7.4, LogD7.4): 2.8
20 | Cc1nccn1-c1sc(Nc2cnccn2)nc1-c1cccc(C#N)c1 | 0.0335 | 0.0437 | 0.0437 | –
21 | CN1C(=N)N[C@](C)(c2cc(-c3cccc(C#N)c3)cs2)CC1=O | 0.249 | 0.0836 | – | –
22 | CC#Cc1cncc(-c2csc([C@]3(C)CC(=O)N(C)C(N)=N3)c2)c1 | 0.17 | 0.119 | – | –

Row | SMILES | fraction unbound at 5 h (in vitro [1]) | fraction unbound at 5 h (in vitro [2]; PPB) | fraction unbound at 5 h (in vitro [3]) | other results
23 | COc1cc(Nc2nc3c(c(COC4CCCC4)n2)COCC3)ccc1-n1cnc(C)c1 | 0.0149 | – | 0.0205 | –
24 | COc1cc(Nc2nc3c(c(Cc4ccccc4)n2)CN(CCO)CC3)ccc1-n1cnc(C)c1 | 0.02 | 0.0191 | – | –
25 | c1ccc([C@@H]([C@H](c2ccccc2)N2CCCCC2)N2CCCCC2)cc1 | 0.262 | 0.0988 | 0.319 | –
26 | CCC#Cc1cncc(-c2ccc3c(c2)C2(N=C(C)C(N)=N2)[C@]2(CC[C@H](OC)CC2)C3)c1 (stereo partly specified) | 0.02 | – | – | –
27 | NC1=NC(c2ccnc(C(F)(F)F)c2)(c2ccc(F)c(-c3cncnc3)c2)c2cccc(F)c21 (stereo unspecified) | 0.0409 | 0.0293 | – | –
28 | CC#Cc1cncc(-c2cccc(C3(c4cc(C)c(OC)c(C)c4)N=C(C)C(N)=N3)c2)c1 (stereo unspecified) | 0.006 | 0.002 | – | –
29 | CC(C)S(=O)(=O)N(C)c1cc(C(=O)N[C@@H](Cc2ccccc2)[C@@H](N)CF)cc(NC[C@H]2C[C@@H]2C)n1 | 0.0191 | 0.0447 | – | –
30 | CCCN(c1cccc(C#N)c1)P(=O)(c1ccccc1)c1ccccc1 | 0.0467 | – | 0.0633 | fraction unbound at 5 h (in vitro [2]): 0.0056
31 | CCOc1cc(CN2CCC(Nc3nc4cc(S(N)(=O)=O)ccc4o3)CC2)cc(OCC)c1N | 0.0928 | 0.299 | 0.11 | –
32 | CC1=C(C(=O)OCc2ccccc2)C(c2cccs2)NC(=O)N1 (stereo unspecified) | 0.03 | 0.0268 | 0.0171 | –
33 | C[C@H](c1ccc(F)cc1CCCC(=O)O)N(c1cc(F)ccc1F)S(=O)(=O)c1ccc(Cl)cc1 | 0.005 | 0.001 | – | logD (physchem [4]; pH 7.4, LogD7.4): 3.1
34 | CCNc1cc(C(=O)N[C@@H](Cc2ccccc2)[C@H](O)CNCc2cccc(C(F)(F)F)c2)c(F)c(N2CCCCS2(=O)=O)c1 | 0.016 | 0.0119 | – | –
35 | CC(O)(C(=O)Nc1ccc(S(=O)(=O)N2CCCC2)cc1)C(F)(F)F (stereo unspecified) | 0.0818 | 0.22 | 0.119 | –
36 | O=C1Nc2cc(C(F)(F)F)ccc2C1(O)c1cc(Cl)ccc1O (stereo unspecified) | 0.0219 | – | 0.0111 | fraction unbound at 5 h (in vitro [2]): 0.0149
37 | Cn1c(-c2cccc(F)c2)nc2c(N)nc(C#CC3(O)CCCC3)nc21 | 0.0752 | 0.119 | – | –
38 | c1cncc(Nc2ncc(-c3ccncn3)c(-c3ccco3)n2)c1 | 0.16 | 0.139 | 0.139 | –
39 | O=c1[nH]c2cc(C(F)(F)F)ccc2n1-c1cc(C(F)(F)F)ccc1O | 0.0021 | – | 0.0011 | –
40 | CCCC[C@H](NC[C@@H]1Cc2cccc(c2)CCCCc2cc(cc(N(CCC)S(C)(=O)=O)c2)C(=O)N1)C(=O)NCC(C)C | 0.002 | 0.004 | – | –
41 | Cc1nc(-c2c(F)cc(Cl)cc2-c2cnc([C@@H](C)NC(=O)[C@@](C)(O)C(F)(F)F)c(F)c2)no1 | 0.0251 | – | 0.0358 | –
42 | C[C@H](NC(=O)Cc1cc(F)cc(F)c1)C(=O)NC1C(=O)N(C)c2ccccc2-c2ccccc21 (stereo partly specified) | 0.0171 | 0.0099 | – | logD (physchem [4]; pH 7.4, LogD7.4): 3.6
43 | CC(O)(C(=O)Nc1cccc(S(=O)(=O)c2ccccc2)c1)C(F)(F)F (stereo unspecified) | 0.0661 | 0.0909 | 0.0594 | –
44 | OC1(c2ccc(Cl)cc2)CCN(Cc2c[nH]c3ccccc23)CC1 | 0.0872 | – | – | logD (physchem [4]; pH 7.4): 2.25; solubility thermodynamic (physchem [5]): 562 µM (≈ 192 µg/mL)

Row | SMILES | fraction unbound at 5 h (in vitro [1]) | fraction unbound at 5 h (in vitro [2]; PPB) | fraction unbound at 5 h (in vitro [3]) | other results
45 | C1Cc2[nH]nc(-c3nnn[nH]3)c2C1 | 0.371 | – | 0.072 | –
46 | O=C1CCc2cc(-c3cncc4ccccc34)ccc2N1 | 0.0313 | 0.0358 | 0.0313 | –
47 | COc1cc(-n2nnc3cc(-c4ccc(Cl)cc4)sc3c2=O)ccc1N1CC[C@@H](O)C1 | 0.0021 | – | – | logD (physchem [4]; pH 7.4, LogD7.4): 3.15
48 | CCCn1c(=O)[nH]c2nc(-c3ccc(S(=O)(=O)N4CCN(Cc5ccc(Cl)cc5)CC4)cc3)[nH]c2c1=O | 0.0007 | – | 0.0006 | –
49 | COc1cc(C(C)C)c(Oc2cnc(NC(CO)CO)nc2N)cc1I | 0.0581 | – | 0.028 | –
50 | CC(C)Cc1c(C(=O)C(N)=O)c2c(OCC(=O)O)cccc2n1Cc1ccccc1 | 0.0366 | – | 0.0187 | fraction unbound at 5 h (in vitro [2]): 0.0313
51 | Fc1ccc(-c2c[nH]c(C3CCN(Cc4ccn(-c5ccc(C(F)(F)F)cc5)c4)CC3)n2)cc1 | 0.0023 | 0.0009 | – | –
52 | O=C(Nc1ccc(Cl)c(C(=O)Nc2cccnc2)c1)c1cccc(C(F)(F)F)c1 | 0.0119 | 0.003 | – | –
53 | Fc1ccc(-c2cc(C3CCN(Cc4ccn(-c5ccc(C(F)(F)F)cc5)c4)CC3)no2)cc1 | 0.0005 | – | – | –
54 | CC(C)[C@H](O)C(=O)N[C@@H](C)C(=O)N[C@@H]1C(=O)N(C)CCc2ccccc21 | 0.858 | 0.803 | 0.792 | –
55 | O=C(CC1CCN(Cc2ccn(-c3ccc(C(F)(F)F)cc3)c2)CC1)NC(c1ccncc1)c1ccc(Cl)cc1 (stereo unspecified) | 0.0051 | 0.013 | – | –
56 | c1ccc2nc(COc3ccc(-c4n[nH]cc4-c4ccncc4)cc3)ccc2c1 | 0.0013 | – | 0.0018 | –
57 | COc1ccc(C2(c3ccc(F)c(-c4cccnc4F)c3)N=C(N)N(C)C2=O)cc1C (stereo unspecified) | 0.0081 | – | 0.0099 | –
58 | CCOc1cc2c(c(F)c1OCC)C(=N)N(CC(=O)c1cc(N3CCOCC3)c(OC)c(C(C)(C)C)c1)C2 [ATOPAXAR] | 0.0025 | 0.0021 | – | –
59 | COc1ccc(-c2cc(C(F)F)nn2-c2ccc(S(N)(=O)=O)cc2)cc1F [DERACOXIB] | 0.0268 | – | – | logD (physchem [4]; pH 7.4, LogD7.4): 2.8
60 | CCCn1c(=O)c2[nH]c(-c3cnn(Cc4cccc(C(F)(F)F)c4)c3)nc2n(CC)c1=O [GS 6201] | 0.001 | – | – | –
61 | CCC(CC)[C@@H](CO)NS(=O)(=O)c1ccc(Cl)s1 [GSI-136] | 0.11 | – | 0.0909 | –
62 | CC[C@H](Nc1ncnc2[nH]cnc12)c1nc2cccc(F)c2c(=O)n1-c1ccccc1 [IDELALISIB] | 0.19 | – | – | logD (physchem [4]; pH 7.4, LogD7.4): 2.72
63 | CC(C)Cn1cnc2c(N)nc3ccccc3c21 [IMIQUIMOD] | 0.0075 | – | 0.179 | logD (physchem [4]; pH 7.4, LogD7.4): 2.52; solubility thermodynamic (physchem [5]): 63.1 µM (≈ 15.2 µg/mL)
64 | Cn1cc(-c2ccncc2)c(-c2ccc(OCc3ccc4ccccc4n3)cc2)n1 [MARDEPODECT] | 0.0039 | – | 0.0017 | –
65 | CCCCCCC(=O)CCCCCC/C=C/C[C@@H](O)[C@H](O)[C@@](N)(CO)C(=O)O [MYRIOCIN] | 0.062 | – | 0.028 | –
